Measurements as given in patent publication US11186577B2, “Vasopressin receptor antagonists and products and methods related thereto” (BlackThorn Therapeutics, Inc., priority 2017, dated 2021).
Where two headings read alike, the source gives them in different places.

Assays:
[1] = molecular target: human Arginine Vasopressin Receptor V2 (AVPR2) (Homo sapiens (Human), UniProt P30518); test: Vasopressin V2 receptor antagonist assay (cAMP TR-FRET, 1321N1 cells); format: cell-based
Procedure: The purpose of the assay was to determine the inhibitory effect of synthesized compounds on the Vasopressin receptor 2. […] Arginine Vasopressin (AVP) evokes an increase in intracellular cAMP in these cells which is measured in a TR-FRET assay using a Europium cAMP tracer and ULight labelled antibody reagents contained in a LANCE Ultra cAMP kit (Perkin Elmer #TRF0263). […] Test compounds were assessed for their ability to affect the magnitude of the response to AVP, with antagonists showing a concentration-dependent decrease in the AVP-mediated reduction in TR-FRET signal.
cAMPZen V2 assay ready cells were thawed at 37° C. and resuspended directly from frozen in 9 ml growth medium consisting of DMEM supplemented with 10% v/v fetal bovine serum, 1× non-essential amino acids, and 1 mM sodium pyruvate. Cells were spun at 1000 rpm for 3 minutes and the supernatant was carefully removed and discarded. The pellet was resuspended in 5 ml stimulation buffer and the cell density determined using the Vi-Cell automated cell counter. The cell suspension was diluted to a 0.2×10^6/ml suspension ready for plating. […] Stimulation buffer consisted of HBSS (+Ca/+Mg) supplemented with 5 mM HEPES, 0.1% BSA stabiliser and 0.5 mM IBMX.
At the start of each assay day the potency of AVP was assessed and an EC80 concentration determined for subsequent compound profiling. Assays were performed by first an addition of 2.5 μl of control or test compound at 4× final concentration in stimulation buffer followed by 2.5 μl of AVP at 4× final concentration in stimulation buffer. After a 1 hour reaction, detection reagents were added by first an addition of 5 μl EU-cAMP tracer, followed by 5 μl ULight-anti-cAMP both diluted as per the manufacturer's instructions. […] For compound profiling, test compounds were dispensed by the Labcyte Echo (10-point curve, 1:3 dilutions) in a target 0.1 μl volume then diluted 750-fold in stimulation buffer containing 3% DMSO prior to addition to the cells. At the end of the incubation period, 2.5 μl of AVP in stimulation buffer was added at the previously determined EC80 concentration.

[2] = molecular target: human Oxytocin Receptor (hOTR) (Homo sapiens (Human), UniProt P30559); test: Oxytocin receptor antagonist assay (oxytocin-evoked calcium, FLIPR, CHEM-1-hOTR cells); format: cell-based; conditions: read-out: OT IC50
Sequence of human Oxytocin Receptor (hOTR) (P30559 whole entry): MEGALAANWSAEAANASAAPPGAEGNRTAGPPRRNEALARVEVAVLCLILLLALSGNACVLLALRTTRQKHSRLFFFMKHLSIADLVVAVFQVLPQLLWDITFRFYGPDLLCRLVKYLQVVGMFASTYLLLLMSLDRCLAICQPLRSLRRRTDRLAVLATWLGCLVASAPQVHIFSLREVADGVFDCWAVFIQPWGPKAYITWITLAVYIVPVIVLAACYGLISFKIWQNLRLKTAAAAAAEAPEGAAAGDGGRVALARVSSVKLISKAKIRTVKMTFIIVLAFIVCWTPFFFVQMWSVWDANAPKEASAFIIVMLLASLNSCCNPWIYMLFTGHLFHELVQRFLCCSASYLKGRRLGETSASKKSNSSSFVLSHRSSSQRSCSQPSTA
Outline: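 Oxytocin-evoked intracellular calcium rise measured by FLIPR^TETRA fluorescence (Calcium-6 dye, 3 min read) in CHEM-1-hOTR cells. Test compounds, 10-point 1:3 dilutions, were added 15 min at 37 °C before an EC80 oxytocin challenge (EC80 set each assay day); buffer HBSS with 20 mM HEPES.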

MDR1 (P-glycoprotein) = test: MDR1-MDCK effective efflux assay (Transwell, 10 μM, 1 hour), MDR1-MDCK cells; format: in vitro ADME; conditions: dog, MDCK-MDR1, pH 7.4, MDR1-MDCK cells, apical to basolateral (A>B), 10 μM, 1 hour; read-out: Papp AB MDR1
Outline: (§1)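 Wild-type and MDR1-MDCK monolayers cultured 3 days were dosed with compound at 10 μM (0.1% DMSO) in HBSS/25 mM HEPES pH 7.4, in both A>B and B>A directions, for 1 h at 37 °C. Samples were quantified by LC-MS/MS to give Papp and efflux ratio. Effective efflux ratio = ER(MDR1-MDCK)/ER(wild-type); Lucifer Yellow checked monolayer integrity.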

[3] = MDR1-MDCK effective efflux assay (Transwell, 10 μM, 1 hour), wild-type MDCK cells; format: in vitro ADME; conditions: dog, MDCK, pH 7.4, wild-type MDCK cells, apical to basolateral (A>B), 10 μM, 1 hour; read-out: Papp AB WT
Outline: as §1

Sequence of human Arginine Vasopressin Receptor V2 (AVPR2) (P30518 whole entry): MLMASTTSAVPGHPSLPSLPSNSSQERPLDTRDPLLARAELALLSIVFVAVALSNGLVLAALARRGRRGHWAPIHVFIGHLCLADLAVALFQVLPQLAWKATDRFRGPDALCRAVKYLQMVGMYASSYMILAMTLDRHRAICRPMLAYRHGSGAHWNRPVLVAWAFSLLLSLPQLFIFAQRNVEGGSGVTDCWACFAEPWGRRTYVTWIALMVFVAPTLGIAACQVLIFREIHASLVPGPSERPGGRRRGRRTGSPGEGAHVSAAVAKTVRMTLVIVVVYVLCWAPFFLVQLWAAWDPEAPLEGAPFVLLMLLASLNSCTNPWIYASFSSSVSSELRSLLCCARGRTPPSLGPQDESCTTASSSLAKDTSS

IC50 ([2]; in vitro antagonist assay, reference compounds) [nM]	Structure (SMILES)	IC50 [1] [nM]	IC50 [2] [nM]	Papp A→B at 1 h, 10 μM (MDR1 (P-glycoprotein)) [×10⁻⁶ cm/s]	Papp A→B at 1 h, 10 μM [3] [×10⁻⁶ cm/s]
	COC(=O)N1Cc2cc(Cl)ccc2-n2c(C3CC4(C3)CN(c3ccc(F)cn3)C4)nnc2C1C (single isomer, unassigned) [Cpd 142B]	> 1000	500 to 1000		
	CC(C)OC(=O)N1Cc2cc(Cl)ccc2-n2c(C3CC4(C3)CN(c3ccc(F)cn3)C4)nnc2C1C (single isomer, unassigned) [Cpd 163A]	> 1000	100 to 500		
	COC(=O)N1Cc2cc(Cl)ccc2-n2c(C3CC4(C3)CN(c3ncccn3)C4)nnc2C1C (single isomer, unassigned) [Cpd 166A]	> 1000	> 1000		
	COC(=O)N1Cc2cc(Cl)ccc2-n2c(C3CC4(C3)CN(c3ncc(F)cn3)C4)nnc2C1C (single isomer, unassigned) [Cpd 170A]	500 to 1000	> 1000		
	CC1c2nnc(C3CC4(C3)CN(c3ncccn3)C4)n2-c2ccc(Cl)cc2CN1C(=O)OC1CC1 (single isomer, unassigned) [Cpd 171B]	> 1000	> 1000		
	CC1c2nnc(C3CC4(C3)CN(c3ccc(F)cn3)C4)n2-c2ccc(Cl)cc2CN1C (single isomer, unassigned) [Cpd 179A]	> 1000	> 1000		
	CC1c2nnc(C3CC4(C3)CN(c3ccc(F)cn3)C4)n2-c2ccc(Cl)cc2CN1C(=O)OC(CF)CF (single isomer, unassigned) [Cpd 203A]	500 to 1000	100 to 500		
> 1000	CN1Cc2cc(Cl)ccc2-n2c(nnc2[C@H]2CC[C@H](Oc3ccccn3)CC2)C1 [balovaptan, reference compound]				
	CN1Cc2cc(Cl)ccc2-n2c(nnc2C2CC3(C2)CN(c2ccccn2)C3)C1 [compound 2]	> 1000	> 1000		
	CN1Cc2cc(Cl)ccc2-n2c(nnc2C2CC3(C2)CN(c2cnccn2)C3)C1 [compound 3]	> 1000	> 1000		
	CN1Cc2cc(Cl)ccc2-n2c(nnc2C2CC3(C2)CN(c2ncccc2F)C3)C1 [compound 4]	> 1000	> 1000		
	CN1Cc2cc(Cl)ccc2-n2c(nnc2C2CC3(C2)CN(C(=O)C2CC2)C3)C1 [compound 28]	> 1000	> 1000		
	COCCN1Cc2cc(Cl)ccc2-n2c(nnc2C2CC3(C2)CN(c2ccccn2)C3)C1 [compound 39, 8-chloro-5-(2-methoxyethyl)-1-(2-(pyridin-2-yl)-2-azaspiro[3.3]heptan-6-yl)-5,6-dihydro-4H-benzo[f][1,2,4]triazolo[4,3-a][1,4]diazepine]	> 1000	> 1000		
	Clc1ccc2c(c1)CN(C1CCC1)Cc1nnc(C3CC4(C3)CN(c3ccccn3)C4)n1-2 [compound 41]	< 100	500 to 1000		
	Fc1ccc(N2CC3(CC(c4nnc5n4-c4ccc(Cl)cc4CN(C4CCC4)C5)C3)C2)nc1 [compound 42]	< 100	500 to 1000		
	CCN1Cc2cc(Cl)ccc2-n2c(nnc2C2CC3(C2)CN(c2ccccn2)C3)C1 [compound 45]	100 to 500	> 1000		
	CCN1Cc2cc(Cl)ccc2-n2c(nnc2C2CC3(C2)CN(c2cnccn2)C3)C1 [compound 46]	> 1000	> 1000		
	CC(C)N1Cc2cc(Cl)ccc2-n2c(nnc2C2CC3(C2)CN(c2cnccn2)C3)C1 [compound 47]	> 1000	> 1000		
	CC(C)N1Cc2cc(Cl)ccc2-n2c(nnc2C2CC3(C2)CN(c2ccccn2)C3)C1 [compound 48]	500 to 1000	> 1000		
	CCN1Cc2cc(Cl)ccc2-n2c(nnc2C2CC3(C2)CN(c2ccc(F)cn2)C3)C1 [compound 49]	100 to 500	> 1000		

IC50 ([2]; in vitro antagonist assay, reference compounds) [nM]	Structure (SMILES)	IC50 [1] [nM]	IC50 [2] [nM]	Papp A→B at 1 h, 10 μM (MDR1 (P-glycoprotein)) [×10⁻⁶ cm/s]	Papp A→B at 1 h, 10 μM [3] [×10⁻⁶ cm/s]
	CC(C)N1Cc2cc(Cl)ccc2-n2c(nnc2C2CC3(C2)CN(c2ccc(F)cn2)C3)C1 [compound 50]	100 to 500	> 1000		
	FC(F)CN1Cc2cc(Cl)ccc2-n2c(nnc2C2CC3(C2)CN(c2ccccn2)C3)C1 [compound 52]	100 to 500	500 to 1000	10 to 20	> 20
	CC(C)N1Cc2cc(Cl)ccc2-n2c(nnc2C2CC3(C2)CN(c2ncccc2F)C3)C1 [compound 54]	500 to 1000	> 1000		
	Clc1ccc2c(c1)CN(C1CC1)Cc1nnc(C3CC4(C3)CN(c3ccccn3)C4)n1-2 [compound 56]	100 to 500	500 to 1000	> 20	> 20
	CC(CF)N1Cc2cc(Cl)ccc2-n2c(nnc2C2CC3(C2)CN(c2ccccn2)C3)C1 (stereo not drawn) [compound 58]	500 to 1000	> 1000		
	FCCN1Cc2cc(Cl)ccc2-n2c(nnc2C2CC3(C2)CN(c2ccccn2)C3)C1 [compound 59]	500 to 1000	> 1000	7 to 10	> 20
	COC(=O)N1Cc2cc(Cl)ccc2-n2c(nnc2C2CC3(C2)CN(c2ccc(F)cn2)C3)C1 [compound 61]	100 to 500	500 to 1000	10 to 20	> 20
	CC(C)C(=O)N1Cc2cc(Cl)ccc2-n2c(nnc2C2CC3(C2)CN(c2ccc(F)cn2)C3)C1 [compound 63]	500 to 1000	> 1000	< 7	> 20
	CC(=O)N1Cc2cc(Cl)ccc2-n2c(nnc2C2CC3(C2)CN(c2ccc(F)cn2)C3)C1 [compound 64]	100 to 500	> 1000	< 7	10 to 20
	CCOC(=O)N1Cc2cc(Cl)ccc2-n2c(nnc2C2CC3(C2)CN(c2ccc(F)cn2)C3)C1 [compound 69]	100 to 500	100 to 500	> 20	> 20
	COC(=O)N1Cc2cc(Cl)ccc2-n2c(nnc2C2CC3(C2)CN(c2ccccn2)C3)C1 [compound 70]	100 to 500	500 to 1000	10 to 20	> 20
	CCC(=O)N1Cc2cc(Cl)ccc2-n2c(nnc2C2CC3(C2)CN(c2ccc(F)cn2)C3)C1 [compound 72]	100 to 500	> 1000	< 7	> 20
	CC(CF)OC(=O)N1Cc2cc(Cl)ccc2-n2c(nnc2C2CC3(C2)CN(c2ccc(F)cn2)C3)C1 (stereo not drawn) [compound 78]	100 to 500	100 to 500	> 20	> 20
	O=C(OC(CF)CF)N1Cc2cc(Cl)ccc2-n2c(nnc2C2CC3(C2)CN(c2ccc(F)cn2)C3)C1 [compound 79]	500 to 1000	100 to 500	10 to 20	> 20
	O=C(OC1CC1)N1Cc2cc(Cl)ccc2-n2c(nnc2C2CC3(C2)CN(c2ccc(F)cn2)C3)C1 [compound 90]	> 1000	100 to 500	> 20	> 20
	O=C(N1Cc2cc(Cl)ccc2-c2c(C3CC4(C3)CN(c3cccnn3)C4)noc2C1)C(F)(F)F [compound 105]	> 1000	100 to 500		
	O=C(C(F)F)N1Cc2cc(Cl)ccc2-n2c(nnc2C2CC3(C2)CN(c2ccccn2)C3)C1 [compound 122]	100 to 500	> 1000	7 to 10	> 20
	O=C(C(F)F)N1Cc2cc(Cl)ccc2-n2c(nnc2C2CC3(C2)CN(C(=O)C2(F)CC2)C3)C1 [compound 134]	> 1000	> 1000		
	CC(C)OC(=O)N1Cc2cc(Cl)ccc2-n2c(C3CC4(C3)CN(c3cnccn3)C4)nnc2C1C (stereo not drawn) [compound 164]	> 1000	100 to 500		
	CC1c2nnc(C3CC4(C3)CN(c3ncccn3)C4)n2-c2ccc(Cl)cc2CN1C(=O)C1(F)CC1 (stereo not drawn) [compound 175]	> 1000	> 1000		
